Experiments:
plasmid (pUC119) = experiment: Binding ability to plasmid (agarose gel electrophoresis); settings: charge ratio (±ratio) of 3
Experimental: The plasmid prepared by the procedure described in Example 7 (pUC119; final concentration, 20 μg/mL) and the peptides prepared by the procedure described in Examples 1 to 3 were mixed in 20 mM Tris HCl buffer (pH=7.2) containing 150 mM NaCl at a charge ratio (±ratio) of 0 to 3, and the mixture was allowed to stand at 37° C. for 30 minutes. Electrophoresis was then conducted on 1% agarose gel to thereby determine the binding of the plasmid and the peptide.
The ±ratio (charge ratio) indicated in FIG. 11 is the ratio of the number (+) of the positively-charged groups in the peptide to the number (−) of negatively-charged groups in the plasmid. As evident in FIG. 11, the amount of plasmid that became bound to the peptide increased with the increase in the charge ratio (±ratio), and the plasmid was fully bound to the peptide at a charge ratio (±ratio) of 3. The peptides of SEQ ID NO: 2 to SEQ ID NO: 24 were also found to bind at a charge ratio (±ratio) of 3.

[1] = biological target: phosphatidyl serine (binding of human Factor VIII); experiment: Affinity for phosphatidyl serine (EIA, inhibition of human Factor VIII binding); settings: in the presence of 5% BSA, human Factor VIII 1 μg/mL
Experimental: The specific affinity of the peptide for phosphatidyl serine was evaluated by measuring activity of the peptide for inhibiting the binding of the human Factor VIII to phosphatidyl serine by using human Factor VIII which is known to bind to phosphatidyl serine but not to phosphatidyl choline in the presence of serum albumin. To be more specific, 100 μL of ethanol solution containing 10 μg/mL of phospholipids at a phosphatidyl serine (manufactured by SIGMA): phosphatidyl choline (manufactured by SIGMA) ratio of 3:7 was added to the wells of a 96 well plate (Immulon I, manufactured by Dynatech), and exsiccated by using a centrifugal evaporator (EC-95C, manufactured by Sakuma Seisakusho) at 40° C. for 40 minutes. 200 μL each of TBS (10 mM Tris-HCl (pH 7.4) containing 1% bovine serum albumin (BSA Fraction V, hereinafter referred to as BSA, manufactured by Seikagaku Corporation) and 0.9% (W/V) NaCl solution were added to each well, and the wells were blocked by allowing the plate to stand at 37° C. for 2.5 hours. After washing the plate with water, 100 μL of TBS solution supplemented with 5% BSA mixed with human Factor VIII (manufactured by American Diagnostica) at a final concentration 1 μg/mL and the peptide of predetermined dose prepared in Example 1 was added to each well, and the reaction was allowed to take place at 4° C. for 24 hours.
After the completion of the reaction, the human Factor VIII that became bound to the phosphatidyl serine was measured by enzyme immunoassay (EIA) in accordance with the general procedure described in a book (“Enzyme Immunoassay (3rd ed.)”, Eiji Ishikawa et al., Igaku-Shoin, 1987). To be more specific, the measurement was conducted by using anti-human Factor VIII mouse monoclonal antibody (ESH8, manufactured by American Diagnostica) for the primary antibody, horseradish peroxidase-labeled anti-mouse IgG antibody (P0260, manufactured by Daco) for the secondary antibody, and tetramethylbenzidine for the chromogenic substrate, and measuring the absorption at a wavelength of 450 nm by using a reference wavelength of 630 nm on a spectrophotometer (NJ-2100, manufactured by Intermed).
Intensity of the affinity of the peptide for the phosphatidyl serine was evaluated by using the value obtained by subtracting the absorption of the well having no human Factor VIII added thereto from the absorption of the well having only the human Factor VIII added thereto as the control value (100%), and designating the peptide concentration at which the value 0.5 was obtained when the value obtained by subtracting the absorption of the well having only the peptide added thereto from the absorption of the well having a mixture of the human Factor VIII and the peptide added thereto were divided by the control value as the IC50 value, and evaluating the intensity to be ++ when the IC50 value was up to 1 μM, and + when the intensity was more than 1 μM but not more than 10 μM. It is to be noted that the specific affinity was evaluated to be none when the intensity was 10 μM or more.

Sequence: TRYLRIHPRSWVHQIALRLRYLRIHPRSWVHQIALRS [SEQ ID NO: 1]
- Binding of plasmid to the peptide (plasmid (pUC119)): fully bound
- IC50 [1]: < 1000 nM
